In paper PMC6743424, “Phenolic acid phenethylesters and their corresponding ketones: Inhibition of 5‐lipoxygenase and stability in human blood and HepaRG cells” (Pharmacology Research & Perspectives, 2019):

Assays:
[1] = Stability of inhibitory activity after incubation in whole blood; assay type: in vitro ADME, human; conditions: 3 μmol/L in whole blood up to 240 minutes before zymosan; LTB4
Procedure: Figure 4 Stability of the test compounds for the inhibition of the biosynthesis of 5‐LO products following incubation in plasma or in whole blood. (A) Test compounds were incubated (30 µmol/L) in human plasma for the indicated times at 37°C. Plasma (50 µL) containing the test compounds was then added to 450 µL of PMNL (10^7 cells/mL) which were then stimulated with 1 μmol/L of thapsigargin for 15 minutes at 37°C. The stimulation was then stopped, samples were processed, and 5‐LO products were measured using RP‐HPLC. (B) Whole blood was incubated in the presence of 3 μmol/L of test compounds or with their diluent (control, DMSO 0.1%) for the indicated times and was then stimulated with opsonized zymosan (4 mg/mL) for 30 minutes at 37°C. Blood was then centrifuged and plasma was collected and added to 1.2 mL of CH3OH:CH3CN (1:1). Samples were processed for analysis using RP‐HPLC for LTB4 quantification. All data are expressed as means ± SEM of at least three independent experiments. *Difference from time = 0, as determined using One‐way ANOVA with Dunnett's multiple comparison test (P < .05)

5‐LO = target: T1, 5‐LO (Homo sapiens, UniProt P09917); experiment: Biosynthesis of 5‐LO products in thapsigargin‐stimulated human PMNL; assay type: cell-based; design: endogenous in cells; host or cells: human polymorphonuclear leukocytes isolated from heparinized blood; conditions: for IC50: 5‐LO product biosynthesis in human PMNL, mean (95% confidence interval); for Inhibition of LT biosynthesis in human PMNL: 1 μmol/L, 5 min, 1 μmol/L thapsigargin 15 min
T1 sequence (P09917 1-674): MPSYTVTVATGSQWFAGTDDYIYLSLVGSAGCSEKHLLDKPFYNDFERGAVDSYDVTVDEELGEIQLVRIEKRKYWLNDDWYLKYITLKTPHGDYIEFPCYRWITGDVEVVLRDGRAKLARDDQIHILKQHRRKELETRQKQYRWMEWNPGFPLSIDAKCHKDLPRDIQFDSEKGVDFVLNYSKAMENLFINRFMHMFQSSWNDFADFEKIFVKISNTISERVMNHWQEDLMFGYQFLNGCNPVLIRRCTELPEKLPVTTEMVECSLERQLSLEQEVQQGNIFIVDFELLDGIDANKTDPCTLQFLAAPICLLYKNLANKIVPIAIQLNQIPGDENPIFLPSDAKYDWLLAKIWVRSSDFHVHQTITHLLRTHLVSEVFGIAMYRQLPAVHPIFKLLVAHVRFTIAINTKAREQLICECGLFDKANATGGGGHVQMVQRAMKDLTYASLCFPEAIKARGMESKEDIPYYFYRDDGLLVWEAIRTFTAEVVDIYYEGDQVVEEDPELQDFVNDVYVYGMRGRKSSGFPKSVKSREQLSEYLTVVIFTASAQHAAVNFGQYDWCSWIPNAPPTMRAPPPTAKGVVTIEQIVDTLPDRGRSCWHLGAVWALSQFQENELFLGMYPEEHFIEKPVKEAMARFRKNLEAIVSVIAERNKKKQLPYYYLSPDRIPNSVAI
Procedure: Heparinized blood (see Ethics statement) was collected, centrifuged at 200g for 10 minutes to collect plasma, and erythrocytes were sedimented in dextran. PMNL were obtained after centrifugation on a lymphocyte separation medium cushion (density, 1.077 g/mL) (Wisent) at 900 g for 20 minutes, followed by hypotonic lysis to remove residual erythrocytes.33 PMNL were counted and resuspended at 10^7 cells/mL in HBSS supplemented with 1.6 mmol/L CaCl2 and 0.3 U/mL adenosine deaminase (Sigma‐Aldrich). PMNL were preincubated with the test compounds or their diluent (0.1% DMSO) for 5 minutes at 37°C and were then stimulated with 1 µmol/L thapsigargin (Sigma‐Aldrich) for 15 minutes at 37°C.27 Reactions were stopped by adding two volumes of CH3OH:CH3CN (1:1) containing the internal standard PGB2 (100 ng/mL), and samples were processed for RP‐HPLC analysis of 5‐LO products.
(A) The structures of CAPE (2) and its analogues investigated in this study. (B) Isolated human PMNL were incubated in presence of test compounds (1 μmol/L) or their diluent (Control, 0.1% DMSO) for 5 minutes. PMNL were stimulated with 1 μmol/L of thapsigargin for 15 minutes at 37°C. The stimulation was then stopped, and samples were processed for analysis of 5‐LO products using RP‐HPLC. Total 5‐LO products measured represent LTB4, its trans isomers, 20‐OH‐LTB4, 20‐COOH‐LTB4 and 5‐hydroxyeicosatetraenoic acid. Data are expressed as means ± SEM of at least three independent experiments. *Difference from control, as determined using one‐way ANOVA with Dunnett's multiple comparison test (P < .05)

| SMILES | Stability of inhibitory activity after incubation in whole blood [1] | IC50 (5‐LO) [nM] | Inhibition of LT biosynthesis in human PMNL (5‐LO) |
| --- | --- | --- | --- |
| O=C(/C=C/c1ccc(O)c(O)c1)OCCc1ccccc1 [CAPE (2), caffeic acid phenethyl ester, reference compound] | complete loss of inhibitory activity after 240 minutes | 970 | – |
| O=C(/C=C/c1cc(O)ccc1O)OCCc1ccccc1 [compound 5] | – | 320 | near complete inhibition |
| O=C(/C=C/c1ccc(O)c(O)c1)CCCc1ccccc1 [compound 7] | complete loss of inhibitory activity after 240 minutes | 520 | near complete inhibition |
| O=C(/C=C/c1cc(O)ccc1O)CCc1ccccc1 [compound 8] | – | 510 | – |
| COc1cc(/C=C/C(=O)CCc2ccccc2)cc(OC)c1O [compound 10, sinapic acid phenethyl ketone] | near complete retention of inhibitory activity | 410 | near complete inhibition |
